Experimental data from patent publication EP4741379A1, “CLASS OF PROGRAMMED CELL DEATH INHIBITORS, PREPARATION METHOD THEREFOR AND USE THEREOF” (SHANGHAI INSTITUTE OF ORGANIC CHEMISTRY, CHINESE ACADEMY OF …, priority 2023, dated 2025).
Where two headings read alike, the source gives them in different places.

Assays:
L929 cells = test: TNF-induced programmed necrosis of L929 cells (Cell Titer-Glo viability); type: cell-based, mouse; details: Mus musculus
Protocol: (§1) The biological test protocol is adopted to test effects of the compound on TNF-induced programmed necrosis of FADD (Fas-associated death domain)-deficient Jurkat cells and L929 cells.
(§2) Two different stimulation methods were used: treating with tumor necrosis factor (TNFα) alone, or treating with TNFα in combination of mitochondrial-derived cysteine-aspartate activator (SMAC) SM164. Cell viability was determined by measuring chemiluminescence values, thereby assessing the bioactivity of the compounds in inhibiting programmed cell necrosis.
(§3) Method: FADD-deficient Jurkat cells: FADD-deficient Jurkat cells (human peripheral blood leukemia T cell line) were cultured in vitro. After reaching logarithmic growth phase, cells were collected and centrifuged at 1000 rpm for 5 minutes. A supernatant was discarded. A cell concentration was adjusted to 2.5×10^5/mL, and cells were seeded into a 384-well plate at 40 µL per well. In the corresponding wells, 5 µL of SM164 (50 nM) and compounds diluted with cell culture medium were added. After pre-treatment at 37°C for 1 hour, 5 µL of TNFα (50 ng/mL) diluted with cell culture medium was added to each well as a stimulation group, while 5 µL of culture medium was added as a control group. After the plate was incubated in a cell culture incubator (37°C, 5% CO2) for 14 hours, 15 µL of Cell Titer-Glo solution was added to each well. Then, the plate was incubated at room temperature for 30 minutes. Luminescence was measured to assess intracellular ATP levels. Cell viability was set at 100% for unstimulated DMSO control wells. […] The plate was placed in a cell culture incubator (37°C, 5% CO2) and cultured for 12 hours. In the corresponding wells, 5 µL of SM164 (500 nM) and compounds diluted with cell culture medium were added. After pre-treatment at 37°C for 1 hour, 5 µL of TNFα (500 ng/mL) diluted with cell culture medium was added to the wells as a stimulation group, while 5 µL of culture medium was added as a control group. After the plate was incubated in the cell incubator (37°C, 5% CO2) for 14 hours, 15 µL of Cell Titer-Glo solution was added to each well. Then, the plate was incubated at room temperature for 30 minutes, and luminescence was measured to assess intracellular ATP levels. Cell viability was set at 100% for unstimulated DMSO control wells. EC50 values of the compounds were calculated using Prism GraphPad statistical software.

[1] = test system: FADD-deficient Jurkat cells; test: TNF-induced programmed necrosis of FADD-deficient Jurkat cells (Cell Titer-Glo viability); type: cell-based, human; details: for EC50: Homo sapiens, Jurkat; for programmed necroptosis inhibitory activity compared to SAR443122: TNFα alone or TNFα + SM164, human derived FADD-deficient Jurkat cells
Protocol: as §1, §2, §3

[2] = Brain penetration (brain/plasma drug concentrations) in rats; type: in vivo
Protocol: (§4) A biological test protocol was adopted to test brain/plasma drug concentrations of the compound in living mice and rats. To verify the brain penetration properties of the compounds of the present disclosure in vivo, a representative compound QY-18-26 was selected. Single administration via oral gavage (PO, 10 mg/kg) or intravenous injection (IV, 2 mg/kg) was used to test brain/plasma drug concentrations of the compound in mice (n = 3) at different time points. At the same time, single administration via oral gavage (PO, 5 mg/kg) was used to test brain/plasma drug concentrations in rats (n = 3) at different time points.

RIPK1 (1-330) protein = biological target: T1, RIPK1 (1-330) protein (Homo sapiens, UniProt Q13546); test: RIPK1 kinase activity (ADP-Glo); type: biochemical; details: RIPK1 (1-330) 2 µM, 37°C, 2 hours; read-out: effective half-maximal inhibitory concentration
T1 construct: test effects of the compound QY-18-26 on kinase activity of RIPK1 (1-330) protein
T1 sequence (Q13546 1-330): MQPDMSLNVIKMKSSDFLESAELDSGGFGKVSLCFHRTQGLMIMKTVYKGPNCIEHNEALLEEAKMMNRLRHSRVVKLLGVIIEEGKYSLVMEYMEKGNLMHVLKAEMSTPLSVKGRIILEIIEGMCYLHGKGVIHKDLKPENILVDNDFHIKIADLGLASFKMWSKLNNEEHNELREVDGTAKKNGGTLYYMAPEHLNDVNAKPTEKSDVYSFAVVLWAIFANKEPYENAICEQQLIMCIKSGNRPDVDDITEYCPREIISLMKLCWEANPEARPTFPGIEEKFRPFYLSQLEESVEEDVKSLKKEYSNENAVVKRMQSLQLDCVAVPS
Protocol: A known clinical RIPK1 inhibitor SAR443122 was used as a control.
Method: Into a 384-well plate, RIPK1 (1-330) protein with a final concentration of 2 µM and ATP with a corresponding concentration (in 1X kinase buffer) with a final concentration of 5 µL were added. At least 3 replicates were set for each group and reacted at 37°C for 2 hours. 5 µL of ADP-Glo reagent was added to stop the kinase reaction and remove any remaining ATP in the reaction system. The plate was incubated at room temperature for 40 minutes, added with 10 µL of Kinase Detection Reagent, which was used to convert ADP to ATP and introduce luciferase and luciferin to detect ATP in the system, and reacted at room temperature for 1 hour. Luminescence was measured using a 7500 Fast Real-Time PCR System. IC50 values of compounds in inhibiting the kinase reaction were calculated using Prism GraphPad statistical software.

[3] = Pharmacokinetic properties in mice; type: in vivo
Protocol: A biological test protocol was adopted to test drug metabolism of the compound in living mice. To verify the pharmacokinetic properties of the compounds of the present disclosure in vivo, the representative compound QY-18-26 was selected. Single administration via oral gavage (PO, 10 mg/kg) or intravenous injection (IV, 1 mg/kg) was used to test the pharmacokinetic properties of the compound in mice (n = 3).

[4] = test system: TNFα-induced systemic inflammatory response syndrome; test: TNFα-induced systemic inflammatory response syndrome in mice; type: in vivo; details: oral gavage 1 mg/kg, 20 minutes before TNFα tail vein injection
Description: A biological test protocol was adopted as follows: systemic inflammatory response syndrome (SIRS), also known as an inflammatory storm, refers to a nonspecific systemic inflammatory response caused by severe infections, multiple trauma, burns, ischemia-reperfusion, acute pancreatitis, and other infectious or non-infectious injuries. Under this condition, a large number of inflammatory factors are released, and in severe cases, the body loses control over the inflammatory response, leading to multiple organ failure and even death. Tail vein injection of tumor necrosis factor TNFα can induce systemic inflammatory response syndrome in mice, causing a drop in body temperature and death of mice. Effects of the representative compound QY-18-26 on TNFα-induced systemic inflammatory response syndrome were tested by monitoring changes in body temperature and death in mice. A known RIPK1 inhibitor Nec-1s was used as a control.
Method: The compound to be tested was dissolved in 0.5% carboxymethyl cellulose at the required concentration one day in advance and sonicated overnight. […] Body temperature changes of mice were monitored using an infrared thermometer after injection. Effects of the compound were calculated using Prism GraphPad statistical software.

[5] = Brain penetration (brain/plasma drug concentrations) in mice; type: in vivo
Protocol: as §4

[6] = L929, stimulation with TNFα + SM164, read-out: EC50 (nM) L929 cells (mouse-derived) TNFα+ SM164
[7] = L929, stimulation with TNFα alone, read-out: EC50 (nM) L929 cells (mouse-derived) TNFα
[8] = stimulation with TNFα + SM164, read-out: EC50 (nM) FADD^-/- Jurkat cells (human-derived) TNFα+ SM164
[9] = stimulation with TNFα alone, read-out: EC50 (nM) FADD^-/- Jurkat cells (human-derived) TNFα
[10] = single dose, PO 10 mg/kg or IV 1 mg/kg

Compound: CN1C(=O)N[C@H](Cc2c[nH]c3c(Cl)cccc23)C1=O [Nec-1s, reference compound]
- EC50 (L929 cells; L929, read-out: EC50 (nM) L929 cells (mouse-derived) TNFα): 443 nM
- EC50 ([1]; read-out: EC50 (nM) FADD^-/- Jurkat cells (human-derived) TNFα): 228 nM

Compound: C[C@H](NC(=O)c1nnn(C)c1Cc1ccccc1)c1ccc(C#Cc2cccnc2)cc1 [QY-18-25]
- EC50 (L929 cells; [6]): 1.2 nM
- EC50 (L929 cells; [7]): 0.3 nM
- EC50 [1, 8]: 0.02 nM
- EC50 [1, 9]: < 0.01 nM

Compound: C[C@H](NC(=O)c1nnn(C)c1Cc1ccccc1)c1ccc(C#Cc2ccccn2)cc1 [QY-18-26, (S)-5-benzyl-1-methyl-N-(1-(4-(pyridin-2-ylethynyl)phenyl)ethyl)-1H-1,2,3-triazole-4-formamide]
- brain-plasma distribution ([2]; at 4 hours): remained stable
- Kp ([2]; rat, brain, single dose PO 5 mg/kg, read-out: concentration in the brain as share of the concentration in plasma): ~0.4
- brain drug concentration ([2]; single dose PO 5 mg/kg): > 5 ng/g
- IC50 (RIPK1 (1-330) protein): 6.4 nM
- EC50 (L929 cells; [6]): < 0.01 nM
- EC50 (L929 cells; [7]): < 0.01 nM
- plasma concentration ([3]; oral gavage 10 mg/kg, for most of the 24-hour period): > 5 ng/mL
- bioavailability (F) [3, 10]: very high
- exposure (AUC) [3, 10]: very high
- maximum plasma concentration (Cmax) [3, 10]: very high
- time to peak concentration [3, 10]: rapidly reached a peak concentration
- effect on TNFα-induced body temperature drop, inflammatory response, and death [4]: effectively counteract
- EC50 [1, 8]: < 0.01 nM
- EC50 [1, 9]: < 0.01 nM
- programmed necroptosis inhibitory activity compared to SAR443122 [1]: stronger
- brain-plasma distribution ([5]; at 4 hours): remained stable
- Kp ([5]; mouse, brain, single dose PO 10 mg/kg or IV 2 mg/kg, read-out: concentration in the brain as share of the concentration in plasma): ~0.4
- brain drug concentration ([5]; single dose PO 10 mg/kg or IV 2 mg/kg): > 5 ng/g

Compound: C[C@H](NC(=O)c1nnn(C)c1Cc1ccccc1)c1ccc(C#Cc2ccncc2)cc1 [QY-18-27]
- EC50 (L929 cells; [6]): 0.06 nM
- EC50 (L929 cells; [7]): 0.04 nM
- EC50 [1, 8]: 0.01 nM
- EC50 [1, 9]: < 0.01 nM
- programmed necroptosis inhibitory activity compared to SAR443122 [1]: stronger

Compound: C[C@H](NC(=O)c1nnn(C)c1Cc1ccccc1)c1ccc(C#Cc2cnn(C)c2)cc1 [QY-18-43]
- EC50 (L929 cells; [6]): 0.08 nM
- EC50 (L929 cells; [7]): 0.05 nM
- EC50 [1, 8]: 0.06 nM
- EC50 [1, 9]: 0.02 nM

Compound: C[C@H](NC(=O)c1nnn(C)c1Cc1ccccc1)c1ccc(C#CC2CCOCC2)cc1 [QY-18-44]
- EC50 (L929 cells; [6]): 0.3 nM
- EC50 (L929 cells; [7]): 0.2 nM
- EC50 [1, 8]: 0.3 nM
- EC50 [1, 9]: 0.04 nM
